Data reported in US20260258471A1, “SYSTEMS AND METHODS FOR MICROCOLONY GROWTH AND MICROBIAL CELL CHARACTERIZATION” (priority 2018, published 2026).
Converted amounts (≈) assume the structure as drawn.

Legend:
Assay type in all cases: cell-based
[1] = test system: Candida albicans (ATCC 90028); assay: LD-AST against fungal cells; settings: thin strip LD-AST; images at 3 and 4 hours, verified overnight
Protocol: A series of LD-AST units having different levels of Amphotoricin B were prepared and tested against Candida albicans (ATCC 90028). […] Therefore, the MIC was determined to be 2 μg/mL. The conclusion of growth at the LD-AST unit corresponding to 1 μg/mL, though not easily noticed in FIG. 29 by visual inspection of t=3 and 4 incubation images, was verified by referring to the overnight incubation row in the figure.
To align imaging data acquired at different time points (2, 3, 4 and 5 hours after seeding), 2D-2D registration (only translation and rotation are permitted) with rigid transformation constrains was performed. The corresponding intensity feature points between the previous time point (tn-1 or tn-2) image, so-called reference, and each further image, so-called floating image, were automatically identified using the key-point detector SURF and used for aligning imaging date with respect to the reference data. Intensity features present at the reference image were classified as background while intensity features appearing on further images (cells/bugs) were classified as foreground. The position of given individual microcolonies have been marked in consecutive images. Setting the background allows enhanced detection of microcolonies and their growth.

Escherichia coli [2] = assay: LD-AST (local diffusion antimicrobial susceptibility testing) on annular-disk microwell strips
Protocol: In one case, an LD-AST test strip was fabricated following the method of Examples 9A and 10, coating different concentrations of Norfloxacin on the annular disks in 0-16 μg range. Three types of strips were prepared: low volume agar type with 80 μL of gel per microwell, medium volume agar type with 150 μL of gel per microwell, and high-volume agar type with 350 μL of gel per microwell. The corresponding gel thickness was respectively 2 mm, 4 mm, and 9 mm. The annular disks were then placed on the gels. The images of the microwell strip, for the case of low volume agar type, is presented in FIGS. 23A and 23B, where 220, 221, 222, and 223 respectively, refer to the drug impregnated annular disc, the drug exposure region, the guiding ring, and the gel. 1 μL of Escherichia coli cell suspension, which had been prepared according to the method of Example 12, was dispensed into the ROI of each LD-AST unit. The strips were incubated at 37° C. and their ROI were imaged by an epi-illuminated microscope having a 5× objective once every hour. These images are presented in FIGS. 24A-24C (low volume gel), 25A-C (medium volume gel), and 26A-C (high volume gel) for incubation times of t=3hours, t=4hours and t=overnight, respectively.
The labels in FIGS. 24A-24C show the mass of the of the antimicrobial agent that was coated on the annular disk during preparation. […] Despite this time variation, an effective antimicrobial agent concentration may be associated with each microwell. This effective antimicrobial agent concentration may be estimated, for example, by modeling the diffusion of the antimicrobial agent, as in FIG. 21A, or, for example, by comparing the results of the LD-AST assay to a reference assay such as broth microdilution assay.
In the case of low volume gels (FIG. 24A-24C), since the antimicrobial agent is expected rapidly and efficiently diffuse throughout the volume of the solid phase growth medium, and since it is expected that the antimicrobial agent diffuses nearly completely from the annular disk, the effective antimicrobial agent concentration may be estimated by dividing the mass of the antimicrobial agent that was provided on the annular disk by the volume of the gel. […] Accordingly, the effective antimicrobial agent concentration for the case low-volume gels of FIGS. 24A-24C was estimated to be 0.25 times of the drug mass that was impregnated on the disk. For instance, the drug concentration at the drug exposure region of the annular disk loaded by 16 μg of Norfloxacin is 4 μg/mL.
Comparing FIGS. 24B and 24C, one can observe (or computationally determine) that for the LD-AST unit labeled by 0.5 μg (having an estimated effective concentration of 0.1 μg/ml), there appears to be a lack of visible growth between 3 and 4 hours of incubation. This halting in growth was verified by imaging the ROIs after overnight culture, as illustrated in FIG. 24C. As a result, the MIC value for this test was estimated as 0.1 μg/mL. […]
FIG. 25A-25C and 26A-26C, respectively, correspond to intermediate volume (gel volume of 150 μL in microwell) and high volume (gel volume of 350 μL in microwell) cases. In these cases, due to the larger temporal variation in concentration during incubation, an effective antimicrobial agent concentration may be determined by correlating the observed results with a reference microdilution assay. […]

Escherichia coli [3] = assay: conventional microdilution methodology (reference)
Protocol: (§1) Intermediate twofold dilutions of antimicrobial agents in broth (Tryptic soy, and in some cases Brain Heart Infusion). 100 μL of the antimicrobial agent/broth solutions were dispensed into each well of 96-well plates in triplicates. Then, to each well 10 μL of the 5×10^6 CFU/mL cell suspension, which was prepared according to the method of example 5, was added. The plate was sealed and placed in the incubator at 35-37° C. for 16-24 hours for MIC value to be determined.

Escherichia coli [4] = assay: Vitek 2 (Biomerieux) reference AST
[5] = test system: Methicillin-resistant Staphylococcus aureus (MRSA 111 with not strong resistance); assay: thin strip type LD-AST on clean suspension and positive blood culture
Protocol: Methicillin-resistant Staphylococcus aureus (MRSA 111 with not strong resistance) was spiked into 10 mL of whole blood samples at the nominal concentration of 5-10 CFU/ml. Then, an FA Plus aerobic blood culture bottles were inoculated with 10 mL of spiked whole blood and incubated at 37° C. until the culture turns positive. At this time, 30 μL of glycerol stock of the bacterial cell was inoculated in 3 mL of TSB and incubated at 37° C. for 3 hr with shaking at 150 rpm. Based on OD measurements, serial dilutions of the respective bacteria were prepared in TSB at a nominal concentration of 10^5 CFU/mL. An aliquot of the positive blood sample was diluted in TSB by 1000-fold. The two samples were simultaneously tested for susceptibility against Oxacillin with “thin strip” type LD-AST. The results, which are presented in FIG. 30, indicate similar MIC value of 1 μg/mL.

Staphylococcus aureus [6] = assay: LD-AST on annular-disk microwell strips
Protocol: In this case, the cell proliferation at the borderline LD-AST unit, such as the one labeled 12 μg, would be preferably determined by image processing. For example, time-lapse microscopic images can be acquired are aligned and difference images (obtained via subtraction of aligned images) may be processed to detect evidence of growth.
In order to further illustrate the insensitivity of the LD-AST to variations of the antimicrobial agent concentration at the ROIs during the first hour of the assay, the assay was performed in two different protocols; a first direct protocol involving immediate inoculation of the microbial cell suspension after contacting the annular disks with the solid phase growth medium, and a second delayed protocol in which the microbial cell suspension was inoculated 1 hour after contacting the annular disks with the solid phase growth medium.
Blank AST paper disks (Hardy Diagnostics, Z7121) that were 6.35 mm in diameter and 0.75 mm thick, were modified to include a 3 mm hole in the center.
Each paper disk has the capacity to absorb approximately 20 μL of liquid before being saturated. For each antibiotic, a two-fold serial dilution in water was made which included concentrations near its suspected MIC value. The disks were separated into individual wells of a 96-well microplate, and then 20 μL of each antibiotic dilution was pipetted over paper disks ensuring that the entire disk was evenly wetted. After incubation for about 20 minutes at room temperature, the disks in the microplate were dried in vacuum desiccator. Alternatively, individual disk separated in the microplate well could be soaked in an excess volume (30 to 50 μL) of the antibiotic dilution. After incubation, the excess fluid is removed by pipette and dried in a vacuum desiccator. The microplate was then covered with an adhesive cover and stored at 4° C.
Tryptic soy agar blood base (Hardy Diagnostics C5221) was prepared with 1% defibrinated sheep's blood according to the manufacturer. While the agar was still warm (45 to 50° C.), it was pipetted into the wells of an 12×8-well strip plate. For “Thin-gel” case, approximately 50 μL of agar was dispensed into an individual well to give a gel thickness of ~1 mm. For the “mid-thick gel” case, approximately 150 μL of agar was dispensed to gel a gel thickness of ~3 mm. Finally, for the “thick gel” case, approximately 350 μL of agar was dispensed to gel a gel thickness of ~7 mm. The agar gels were then cooled to room temperature to solidify, and then either used immediately or stored at 4° C. with an adhesive cover over the wells to prevent gel drying. […]

Staphylococcus aureus [7] = assay: Vitek 2 reference AST
Staphylococcus aureus [8] = assay: broth microdilution AST according to Example 11
Protocol: as §1

S. aureus = assay: antimicrobial dilution pipetted directly onto thin-type gel microwells (no annular disk); settings: Staphylococcus aureus; 20 μL of two-fold dilutions pipetted onto thin-type microwells; 37° C. until control colonies visible
Protocol: In order to verify the observed difference between the MIC for the low-volume gel and the typical MIC values reported by EUCAST for S. aureus and Vancomycin was not caused by the geometry of the annular disk and its corresponding diffusion dynamics, the following experiment was performed. A two-fold serial dilution of the target antimicrobial agent was prepared in water. Then 20 μL of each dilution was pipetted onto the surface of “thin-type” microwells that were prepared according to the method of Example 10. After about 10 minutes, the antimicrobial agent solution had diffused into top of the gel. 1 μL of a microbial cell suspension was then added and together they were incubated at 37° C. until the microbial colonies at the control well (zero antimicrobial agent concentration) were visible. The MIC found in this manner was 3 μg/mL.

Molecule: Amphotoricin B
- MIC [1]: 2 µg/mL

Molecule: CCn1cc(C(=O)O)c(=O)c2cc(F)c(N3CCNCC3)cc21 [Norfloxacin]
- MIC (Escherichia coli [2]; Escherichia coli, low volume gel strip, no growth between 3 and 4 hours of incubation, verified overnight, read-out: MIC value (estimated effective concentration)): 0.1 µg/mL (≈ 0.313 µM)
- classification of MIC per CLSI/EUCAST interpretation standards (Escherichia coli [2]; LD-AST MIC, low volume gel): S
- antimicrobial mass label of the microwell at which microbial growth halts (Escherichia coli [2]; high volume (gel volume of 350 μL in microwell)): 1 µg
- antimicrobial mass label of the microwell at which microbial growth halts (Escherichia coli [2]; intermediate volume (gel volume of 150 μL in microwell)): 1 µg
- antimicrobial mass coated on annular disk of the LD-AST unit showing lack of visible growth (Escherichia coli [2]; low volume gel, between 3 and 4 hours of incubation): 0.5 µg
- MIC value (Escherichia coli [3]): 0.1 µg/mL (≈ 0.313 µM)
- susceptibility category reported by Vitek 2 (Escherichia coli [4]): S
- MIC (Escherichia coli [4]; Escherichia coli, read-out: MIC value reported by Vitek 2): ≤ 0.5 µg/mL

Molecule: Cc1onc(-c2ccccc2)c1C(=O)N[C@@H]1C(=O)N2[C@@H]1SC(C)(C)[C@@H]2C(=O)O [Oxacillin]
- MIC ([5]; Staphylococcus aureus, MRSA, clean cell suspension in TSB, nominal 10^5 CFU/mL): 1 µg/mL (≈ 2.49 µM)
- MIC value ([5]; positive blood culture diluted in TSB by 1000-fold): 1 µg/mL (≈ 2.49 µM)

Molecule: CN[C@H](CC(C)C)C(=O)N[C@H]1C(=O)N[C@@H](CC(N)=O)C(=O)N[C@H]2C(=O)N[C@H]3C(=O)N[C@H](C(=O)N[C@H](C(=O)O)c4cc(O)cc(O)c4-c4cc3ccc4O)[C@H](O)c3ccc(c(Cl)c3)Oc3cc2cc(c3O[C@@H]2O[C@H](CO)[C@@H](O)[C@H](O)[C@H]2O[C@H]2C[C@](C)(N)[C@H](O)[C@H](C)O2)Oc2ccc(cc2Cl)[C@H]1O [Vancomycin]
- classification of MIC per CLSI interpretation standards (Staphylococcus aureus [6]; LD-AST MIC, thin type): I
- MIC, direct protocol versus delayed (1 hour) inoculation protocol (Staphylococcus aureus [6]; mid-thick strip, 4 hours after inoculation (FIG. 28)): equal
- growth at borderline LD-AST unit (difference image of time-lapse images) (Staphylococcus aureus [6]; mid-thick type, unit labeled 12 μg, verified by overnight incubation): continued to grow
- MIC value (Staphylococcus aureus [6]; thin type LD-AST unit (FIG. 27A), 3 and 4 hours incubation): 3 µg/mL (≈ 2.07 µM)
- susceptibility category from Vitek 2 (Staphylococcus aureus [7]): S
- MIC (Staphylococcus aureus [7]; Staphylococcus aureus, read-out: MIC value from Vitek 2): 1 µg/mL (≈ 0.69 µM)
- MIC (Staphylococcus aureus [8]; Staphylococcus aureus, broth microdilution, Example 11): 1.5 µg/mL (≈ 1.04 µM)
- classification of MIC according to CLSI (Staphylococcus aureus [8]; broth microdilution MIC): S
- MIC (S. aureus): 3 µg/mL (≈ 2.07 µM)
